According to ChEMBL document CHEMBL4673333, “Bioactive Limonoids and Triterpenoids from the Fruits of Melia azedarach” (J Nat Prod, 2020):
Activity calls are given as the source filed them. The calls are words filed in the database; no cut-off is given here.

Tests used:
Format in all cases: functional, cell-based
Bel-7402 = assay: Cytotoxicity against human Bel-7402 cells assessed as reduction in cell viability by CCK8 assay
HT-29 = assay: Cytotoxicity against human HT-29 cells assessed as reduction in cell viability by CCK8 assay
U-251 = assay: Cytotoxicity against human U-251 cells assessed as reduction in cell viability by CCK8 assay
A549 = assay: Cytotoxicity against human A549 cells assessed as reduction in cell viability by CCK8 assay
HCT-116 = assay: Cytotoxicity against human HCT-116 cells assessed as reduction in cell viability by CCK8 assay

Row | Structure (SMILES) | Activity (Bel-7402) | Activity (HT-29) | Activity (U-251) | Activity (A549) | Activity (HCT-116) | IC50 (HCT-116) [µM]
1 | COC(=O)C[C@H]1[C@](C)(C2=C(C)[C@H](c3ccoc3)C[C@@H]2OC(C)=O)[C@H](OC(=O)c2ccccc2)[C@@H]2OC[C@]3(C)[C@H](OC(C)=O)C[C@H](OC(C)=O)[C@@]1(C)[C@@H]23 | inactive | inactive | inactive | inactive | inactive | 
2 | C/C=C(\C)C(=O)O[C@@H]1[C@@H]2OC[C@]3(C)[C@H](OC(C)=O)C[C@H](OC(C)=O)[C@@](C)([C@@H]23)[C@@H](CC(=O)OC)[C@]1(C)C1=C(C)[C@H](c2ccoc2)C[C@H]1OC | inactive | inactive | inactive | inactive | inactive | 
3 | COC(=O)C[C@H]1[C@](C)(C2=C(C)[C@H](c3ccoc3)C[C@H]2OC)[C@H](OC(=O)c2ccccc2)[C@@H]2OC[C@]3(C)[C@H](OC(C)=O)C[C@H](OC(C)=O)[C@@]1(C)[C@@H]23 | inactive | inactive | inactive | inactive | inactive | 
4 | COC(=O)C[C@H]1[C@]2(C)C3=C(C)[C@H](c4ccoc4)C[C@H]3O[C@@H]2[C@H](OC(C)=O)[C@H]2[C@](C)(C=O)[C@H](O)C[C@H](OC(=O)c3ccccc3)[C@@]21C | inactive | inactive | inactive | inactive | inactive | 
5 | CC(C)=CCC[C@H]1C(=O)O[C@H]2C[C@]3(C)C4=CC(=O)[C@H]5C(C)(C)[C@@H](O)CC[C@]5(C)[C@H]4CC[C@@]3(C)[C@@H]21 | inactive | inactive | inactive | inactive | inactive | 
6 | C/C=C(\C)C(=O)O[C@@H]1C[C@H](OC(=O)/C=C/c2ccccc2)[C@@]2(C)[C@H]3[C@@H](OC[C@]13C)[C@H]1O[C@@H]3C[C@@H](c4ccoc4)C(C)=C3[C@@]1(C)[C@@H]2CC(=O)OC | inactive | inactive | inactive | inactive | inactive | 
7 | CC(C)=CCC[C@@H](C(=O)O)[C@@H]1[C@@H](O)C[C@]2(C)C3=CC[C@H]4C(C)(C)[C@@H](O)CC[C@]4(C)[C@H]3C[C@@H](O)[C@@]12C | inactive | inactive | inactive | inactive | inactive | 
8 | COC(=O)C[C@H]1[C@]2(C)C3=C(C)[C@H](c4ccoc4)C[C@H]3O[C@@H]2[C@@H]2OC[C@]3(C)[C@H](OC(=O)c4ccccc4)C[C@H](OC(=O)c4ccccc4)[C@@]1(C)[C@@H]23 | inactive | inactive | inactive | inactive |  | 0.3
9 | CC(=O)O[C@H]1[C@@H](OC(=O)c2ccccc2)[C@@]2(C)C3=CC[C@@H](c4ccoc4)[C@]3(C)[C@@H](OC(C)=O)C[C@@H]2[C@@]2(C)[C@@H](O)C[C@@H](OC(C)=O)[C@](C)(C=O)[C@H]12 | inactive | inactive | inactive | inactive | inactive | 
10 | C=C(C)C(=O)O[C@@H]1[C@@H]2OC[C@]3(C)[C@H](OC(C)=O)C[C@H](OC(C)=O)[C@@](C)([C@@H]23)[C@@H](CC(=O)OC)[C@]1(C)C1=C(C)[C@H](c2ccoc2)C[C@@H]1OC | inactive | inactive | inactive | inactive | inactive | 
11 | CC(=O)O[C@H]1C[C@@H](OC(C)=O)[C@@]2(C)CO[C@H]3[C@@H](OC(=O)c4ccccc4)[C@@]4(C)C5=C(C)[C@H](c6ccoc6)C[C@@H]5O[C@@H](O)C[C@@H]4[C@]1(C)[C@@H]32 | inactive | inactive | inactive | inactive | inactive | 
12 | CO[C@@H]1O[C@@H]([C@H](O)C(C)(C)O)C[C@H]1[C@@H]1CC[C@]2(C)C3=CC[C@H]4C(C)(C)[C@@H](O)CC[C@]4(C)[C@H]3CC[C@@]12C | inactive | inactive | inactive | inactive | inactive | 
13 | C/C=C(\C)C(=O)O[C@@H]1[C@@H]2OC[C@]3(C)[C@H](OC(C)=O)C[C@H](OC(C)=O)[C@@](C)([C@@H]23)[C@H]2C[C@H](O)O[C@H]3C[C@@H](c4ccoc4)C(C)=C3[C@]12C | inactive | inactive | inactive | inactive | inactive | 
14 | COC(=O)C[C@H]1[C@]2(C)C3=C(C)[C@H](c4ccoc4)C[C@H]3O[C@@H]2[C@@H]2OC[C@]3(C)[C@H](OC(=O)/C=C/c4ccccc4)C[C@H](OC(=O)c4ccccc4)[C@@]1(C)[C@@H]23 | inactive | inactive | inactive | inactive | inactive | 
15 | COC(=O)C[C@H]1[C@]2(C)C3=C(C)[C@H](c4ccoc4)C[C@H]3O[C@@H]2[C@@H]2OC[C@]3(C)[C@H](OC(=O)c4ccccc4)C[C@H](OC(=O)/C=C/c4ccccc4)[C@@]1(C)[C@@H]23 | inactive | inactive | inactive | inactive | inactive | 
16 | CO[C@H]1O[C@@H]([C@H](O)C(C)(C)O)C[C@H]1[C@@H]1CC[C@]2(C)C3=CC[C@H]4C(C)(C)[C@@H](O)CC[C@]4(C)[C@H]3CC[C@@]12C | inactive | inactive | inactive | inactive | inactive | 
17 | COC(=O)C[C@H]1[C@](C)(C2=C(C)[C@H](c3ccoc3)C[C@@H]2OC)[C@H](OC(=O)c2ccccc2)[C@@H]2OC[C@]3(C)[C@H](OC(C)=O)C[C@H](OC(C)=O)[C@@]1(C)[C@@H]23 | inactive | inactive | inactive | inactive | inactive | 
18 | CC(=O)O[C@H](C(=O)C=C(C)C)[C@H](C)[C@@H]1CC[C@]2(C)C3=CC[C@H]4C(C)(C)C(=O)CC[C@]4(C)[C@H]3C[C@@H](O)[C@@]12C | inactive | inactive | inactive | inactive |  | 5.9
19 | C/C=C(\C)C(=O)O[C@H]1C[C@@H](O)[C@@](C)(C=O)[C@@H]2[C@@H](OC(C)=O)[C@H]3O[C@@H]4C[C@@H](c5ccoc5)C(C)=C4[C@@]3(C)[C@H](CC(=O)OC)[C@@]12C | inactive | inactive | inactive | inactive | inactive | 
20 | C/C=C(\C)C(=O)O[C@@H]1[C@@H]2OC[C@]3(C)[C@H](OC(C)=O)C[C@H](OC(C)=O)[C@@](C)([C@@H]23)[C@@H](CC(=O)OC)[C@]1(C)C1=C(C)[C@H](c2ccoc2)C[C@@H]1OC | inactive | inactive | inactive | inactive | inactive | 
21 | C/C=C(\C)C(=O)O[C@H]1C[C@@H](OC(=O)c2ccccc2)[C@@]2(C)CO[C@H]3[C@H]4O[C@@H]5C[C@@H](c6ccoc6)C(C)=C5[C@@]4(C)[C@H](CC(=O)OC)[C@]1(C)[C@@H]32 | inactive | inactive | inactive | inactive | inactive | 
